We go through six compounds from PMC7463999, “Antioxidant, Anti-inflammatory and Neuroprotective Profiles of Novel 1,4-Dihydropyridine Derivatives for the Treatment of Alzheimer’s Disease” (Antioxidants, 2020).

For orientation: IC50 means the concentration that gives 50% inhibition. Low values mean inhibition by little substance, high ones a need for much substance. One may read the EC50 as the concentration that produces a half-maximal response. What is called Ki is the equilibrium dissociation constant of an inhibitor or competing ligand from its target. A low value points to tighter binding. In general, viability refers to the share of living cells, or the viability signal relative to a control.

The nature of data set [1]: Oxygen Radical Absorbance Capacity (ORAC) assay. The settings on record: Trolox equivalents, ORAC of Trolox = 1.0; AAPH, fluorescein.
A short description of a further data set: DPPH reduction assay. The following applies: DPPH 100 µM, 1 h in the dark. A general note: Loss of DPPH colour is used to gauge radical scavenging.
Data set [2] deals with primary glial cultures stimulated with LPS. The experiment in a line: Nitrite production reduction (Griess) in LPS-stimulated mixed primary glial cultures. The class given is cell-based, rat. The following applies: for EC50: Rattus norvegicus, LPS 1 μg/mL, 24 h pre-incubation, 18 h co-incubation. (In general: Griess reagent forms a coloured azo dye with nitrite.)
For data set [3], the system named is voltage-dependent Ca^2+ channels (VDCC). The experiment in a line: Voltage dependent calcium channels blockade assay (Fluo-4, 70 mM K+). The class given is cell-based, human. The settings on record: compounds at 10 μM, SH-SY5Y, basal = 100% response. Here is the method: Free cytosolic Ca^2+ was measured using the fluorescence Ca^2+ indicator Fluo-4/AM. SH-SY5Y cells were seeded in 96-well black bottom transparent plates at a density of 60,000 cells per well and cultured until they reach confluence. Cells were incubated with the Ca^2+ sensitive dye Fluo-4/AM at 5 µM in Krebs-HEPES buffer (KH) (145 mM NaCl, 4.9 mM KCl, 1.2 mM MgCl2, 2 mM CaCl2, 10 mM HEPES, 11 mM glucose, pH 7.4), and 0.05% pluronic acid, for 1 h at 37 °C in the dark. Then, cells were washed twice with KH solution to remove the excess of probe and compounds in solution were added. Test compounds at 10 µM were incubated 10 min before K^+ 70 mM was applied to trigger cytosolic Ca^2+ increase. Fluorescence was measured in a fluorescence microplate reader (FLUOstar Optima, BMG, Ortenberg, Baden-Wuerttemberg, Germany) at excitation and emission wavelengths 485 and 520 nm, respectively. To normalize Fluo-4 signals, Triton X-100 (5%) and subsequently MnCl2 1 M were applied to the cells to register maximal and minimal fluorescence, respectively. Data were calculated as a percentage of Fluorescence increment with respect to Fmax − Fmin. The percentage of response was calculated considering basal conditions as 100% response.
Voltage dependent Calcium Channel Blockade Assay
Free cytosolic Ca2+ was measured using the fluorescence Ca2+ indicator Fluo-4/AM.
SH-SY5Y cells were seeded in 96-well black bottom transparent plates at a density of 60,000 cells per well until reaching confluence. Cells were incubated with the Ca2+ sensitive dye fluo-4 AM at 5 µM in Krebs-Hepes buffer (KH) (145 mM NaCl, 4.9 mM KCl, 1.2 mM MgCl2, 2 mM CaCl2, 10 mM HEPES, 11 mM glucose, pH 7.4), and 0.05 % pluronic acid, for 1 h at 37 °C in the dark. Then, cells were washed twice with KH solution to remove the excess of probe and compounds in solution were added. Tested compounds at 10 µM were incubated 10 min before K+ 70 mM was applied to evoke the increment of cytosolic Ca2+. The experiments were analyzed at excitation and emission wavelengths of 485 and 520 nm, respectively, and fluorescence was measured in a fluorescence microplate reader (FLUOstar Optima, BMG, Germany). To normalize Fluo-4 signals, Triton X-100 (5 %) and subsequently MnCl2 1 M were applied to cells for registering both maximal and minimal fluorescence, respectively. Data were calculated as % F increment respect to Fmax – Fmin. % of blockade was calculated considering basal conditions as 100 % response.
Then, the donor filter plate was carefully put on the acceptor plate to form a “sandwich”, which was left undisturbed for 4 h at 25 °C. During this time, the compounds diffused from the donor plate through the polar brain lipid membrane (area = 0.28 cm2) into the acceptor plate. After incubation, the donor plate was carefully removed. UV plate reader determined the concentration of compounds and commercial drugs in both acceptor and […]

Data set [4] in a line: Blood-brain barrier permeation assay (PAMPA), porcine brain lipid. The class given is in vitro ADME. The following applies: for PAMPA Prediction: BBB permeability class from Pe.
Data set [5] concerns blood-brain barrier (passive diffusion). Described as above. The class given is in vitro ADME. The following applies: PAMPA; 100 µM, PBS pH 7.4, 4 h at 25 °C, mean ± SEM; read-out: PAMPA Pe.
Data set [6] relates to neuroblastoma cell line SH-SY5Y. The experiment in a line: Cytotoxicity (neurotoxicity) in SH-SY5Y, MTT. The settings on record: 24 h.
Method: (§1) LD50 in SH-SY5Y and primary glial culture cells
(§2) cell line SH-SY5Y and primary glial cultures. Viability was measured as
(§3) MTT reduction in presence of increasing concentrations of derivatives.
(§4) Values are expressed as LD50 calculated from dose-response curves of four
(§5) different concentrations. Data are expressed as mean  SEM of five
different experiments in triplicate.
(§6) SH-SY5Y or primary glial cells were cultured in 96-well plates for 24 h. Then, cells
(§7) were treated with the compounds at 10, 30 and 100 µM in the corresponding culture media
(§8) with 1 % FBS After 24 h, cell viability was assessed by the MTT-reduction assay. Control
(§9) cells were incubated with the same concentration of DMSO (0.1 % final concentration)
Viability assay by MTT-reduction
(§10) SH-SY5Y, primary glial culture cells and rat hippocampal slices viability was
(§11) measured by the MTT assay [11]. This method is based on the cleavage of the tetrazolium
(§12) ring of MTT by active dehydrogenases, generating a formazan precipitate. At the end of
(§13) the neuroprotection or toxicity experiments, an MTT solution was added to each well to
(§14) reach a final concentration of 0.5 mg/mL. After 2 additional hours of incubation, the
(§15) solution was replaced by 100 or 300 µL of DMSO to solubilize the formazan precipitate.
(§16) in control cells was considered as 100 % of cell survival and used to reference all
The next data set concerns the target GSK-3β (Homo sapiens, UniProt P49841). The experiment in a line: GSK-3β inhibition, Kinase-Glo luminescence assay. (In Kinase-Glo more light means more ATP remaining.)
The test system of data set [7] is SH-SY5Y human neuroblastoma cells. Kind of data set: Neuroprotection against 70 mM K+ ([Ca2+]c overload), MTT. The following applies: 1 μM, 24 h, basal = 100%.
Method: (§17) Cells were pre-incubated with the corresponding compound at 1 μM in neuroblastoma culture medium. After 24 h, the medium was removed and replaced with 1% FBS neuroblastoma culture media containing the corresponding compound at 1 µM and the toxic stimuli, namely a mixture of rotenone and oligomycin A (R/O, 30 μM/10 μM, respectively), okadaic acid (OA) at 20 nM or a high concentration of KCl (70 mM). Cells were co-incubated for further 24 h with the R/O mixture or KCl solution, or 18 h with the OA solution. […] Control cells were incubated with the same amount of dimethyl sulfoxide (DMSO) without any drug. After the co-incubation period, cell viability was assessed by the 3-(4,5-dimethylthiazol-2-yl)-2,5-diphenyltetrazolium bromide (MTT) reduction method [56]; basal condition was considered as 100% survival.
(§18) Neuroprotection in the SH-SY5Y neuroblastoma cell line
(§19) A pre- and co-incubation protocol was followed. Cells were pre-incubated with the
(§20) corresponding compound at 1 M in neuroblastoma culture medium. After 24 h, the
(§21) medium was removed and replaced with 1% FBS neuroblastoma culture media
containing the corresponding compound at 1 µM and the toxic stimuli, namely a mixture […]
viability was assessed by the MTT-reduction method [11] considering basal conditions […]
measured by the MTT assay [11]. […]
treatments. The percentage of protection was calculated as follows: the percentage of cell […]
The test system of data set [8] is primary glial cultures. Kind of data set: Cytotoxicity (gliotoxicity) in primary glial cultures, MTT. The following applies: 24 h.
Method: as §2, §3, §4, §5
different experiments in triplicate.
(§22) Mixed glial cultures were obtained from cerebral cortex of 2-5-day-old Sprague-Dawley rats. After removal of blood vessels and meninges, the forebrains were dissociated in DMEM/F12 medium. After mechanical dissociation, cells were plated (3x10^5 cells/ml) in DMEM/F12 medium with 20 % fetal bovine serum (FBS) and 1 % penicillin/streptomycin (10,000 units), at 37 °C and in a 5 % CO2-supplemented air atmosphere. After 5 days, medium was substituted by DMEM/F12 medium with 10 %
(§23) FBS. Cells were cultured for 7-10 days before treatment.
as §6, §7, §8, §9
Viability assay by MTT-reduction
as §10
measured by the MTT assay [11].
Data set [9] has as its system SH-SY5Y human neuroblastoma cells. Kind of data set: Neuroprotection against rotenone/oligomycin A (oxidative stress), MTT. The settings on record: 1 μM, rotenone 30 μM / oligomycin A 10 μM, 24 h.
Method: as §17, §18, §19, §20, §21
(§24) containing the corresponding compound at 1 µM and the toxic stimuli, namely a mixture
(§25) of rotenone and oligomycin A (30 M/10 M respectively), okadaic acid at 20 nM or a
(§26) high concentration of potassium chloride (70 mM). Cells were co-incubated for further
(§27) 24 h with the rotenone and oligomycin A or potassium chloride solution, or 18 h with the
(§28) okadaic acid solution. Control cells were incubated with the same amount of DMSO
(§29) and reference compounds in the rotenone-oligomycin A, okadaic acid or high
(§30) concentration of potassium models respectively. After the co-incubation period, cell
(§31) viability was assessed by the MTT-reduction method [11] considering basal conditions
Viability assay by MTT-reduction
as §10, §11, §12, §13, §14, §15, §16
(§32) treatments. The percentage of protection was calculated as follows: the percentage of cell
(§33) survival obtained with the toxic stimuli-treated cells subtracted to 100 was normalized to
(§34) 100 % of cell death. The percentage of protection was obtained by subtracting the
(§35) percentage of cell death in presence of the tested compound to 100 %.
Data set [10] relates to primary glial cultures stimulated with LPS. The settings on record: read-out: EC50 Nitrite Reduction; LPS 1 μg/mL; cited from earlier work.
Data set [11] has as its system rat hippocampal slices. The experiment in a line: ROS production (H2DCFDA) in rat hippocampal slices treated with okadaic acid. The following applies: OA 1 μM + compound 10 μM, 6 h. The class given is cell-based.
The subject of data set [12] is SH-SY5Y human neuroblastoma cells. The experiment in a line: Neuroprotection against okadaic acid (tau hyperphosphorylation), MTT. The following applies: 18 h.
Method: as §17, §18, §19, §20, §21, §24, §25, §26, §27, §28, §29, §30, §31
Viability assay by MTT-reduction
as §10, §11, §12, §13, §14, §15, §16, §32, §33, §34, §35
Data set [13] relates to rat hippocampal slices. The settings on record: OA 1 μM alone, 6 h.
Method: Finally, cell viability and ROS production were measured.
After the co-incubation period, cell
as §31
Viability assay by MTT-reduction
as §10, §11, §12, §13, §14, §15, §16, §32, §33, §34, §35
Acute treatment in rat hippocampal slices
3-4 months-old Sprague-Dawley rats were beheaded and both hippocampi dissected
0.5 mM CaCl2; 11 mM glucose and 200 mM sucrose at pH 7.4). […]
All values are expressed as mean ± S.E.M. IC50 and LD50 values were calculated by […]
Data set [14] deals with neuroblastoma cell line SH-SY5Y. The following applies: human, 24 h.
Method: as §1, §2, §3, §4, §5
different experiments in triplicate.
as §6, §7, §8, §9
Viability assay by MTT-reduction
as §10, §11, §12, §13, §14, §15, §16
Data set [15] relates to primary glial cultures. The settings on record: Sprague-Dawley, rat, 24 h.
Method: as §2, §3, §4, §5
different experiments in triplicate.
as §22, §23, §6, §7, §8, §9
Viability assay by MTT-reduction
as §10
measured by the MTT assay [11].

Values joined by “and” are separate entries in the source; they are usually repeats but may differ in a detail not shown here. Identical values can stand only once. Like-named read-outs stand apart in the source and are kept apart here. A value given as a limit tells only on which side of the number the result lay.

Sequence of GSK-3β (P49841 whole entry): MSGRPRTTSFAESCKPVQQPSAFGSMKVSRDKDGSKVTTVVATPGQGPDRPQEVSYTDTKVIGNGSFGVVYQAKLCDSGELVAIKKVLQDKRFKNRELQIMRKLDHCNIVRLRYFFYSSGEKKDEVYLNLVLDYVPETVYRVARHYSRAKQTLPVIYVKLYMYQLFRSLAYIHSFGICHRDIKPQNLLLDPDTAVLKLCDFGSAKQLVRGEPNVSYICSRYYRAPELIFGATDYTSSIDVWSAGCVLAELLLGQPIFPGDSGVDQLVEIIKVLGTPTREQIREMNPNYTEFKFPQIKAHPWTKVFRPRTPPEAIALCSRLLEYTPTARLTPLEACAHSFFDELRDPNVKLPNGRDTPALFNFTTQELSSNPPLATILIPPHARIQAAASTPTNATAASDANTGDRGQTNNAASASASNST
Method for DPPH reduction assay: The final solution was incubated during 1 h in the dark. […] Results are expressed as a percentage of DPPH reduction by subtracting blank absorbance (Absblank) to sample absorbance (Abssample) and corrected by control absorbance, (Abscontrol, DPPH alone, as expressed below: % DPPH reduction = [100 − ((Abssample − Absblank) × 100/Abscontrol)](1)
Briefly, the compounds under assay (150 µL) at the desired concentration (1, 10, 60 and 100 µM) in methanol/water (80/20) were added to a solution of DPPH in methanol/water (80/20) (150 µL, 100 µM), in a clear bottom 96-well plate, and the final solution was incubated 1 h in the dark. Then, DPPH absorbance of blank (methanol/water), control
Optima plate-reader (BMG Labtech, Ortenberg, Germany) in duplicate.
Results are expressed as % of absorbance (Abs) reduction of control after subtracting blank absorbance, as expressed
% DPPH reduction = [100 – (Abssample-Absblank) x 100]/Abscontrol

On to `Cc1[nH]nc2c1C(c1cccc(Cl)c1)C(C#N)=C(N)N2` (stereo not shown) [4d], for which the “ORAC (T. Eq.)” value in data set [1] is 0.63 T. Eq. and 0.63 ± 0.09 T. Eq. Further, the IC50 in “DPPH reduction assay” was 22.8 ± 4.63 µM. Besides, in [2], the EC50 was found to be 0.78 ± 1.98 µM. Also, the “VDCC % Response” value in [3] stood at 76.0 ± 6.5%. In addition, in data set [4], the “PAMPA Prediction” value is on record as “CNS+”. Also, the Papp at 4 h, 100 µM in [5] stood at 11.8 ± 3 ×10⁻⁶ cm/s. In addition, the “SH-SY5Y LD50” value in data set [6] was more than 100 µM. On GSK-3β, this compound yielded a half-inhibitory concentration (IC50) of 1050 ± 300 nM and a Ki of 740 nM. In data set [7], the “survival percentage, high K+ toxicity” value came out at 61.4%. Further, the Glial cultures LD50 with primary glial cultures [8] is more than 100 µM. Also, the “percentage of protection, R/O toxicity” value in data set [9] was 32.0%. For the same compound, in data set [9] (basal = 100%), the “percentage of survival, R/O toxicity” value was found to be 72.3%.
Take `C[S+]([O-])CCCCN=C=S` (stereo not shown) [Sulforaphane]: the concentration for a half-maximal effect (EC50) in data set [10] is 1400 ± 300 nM.
For `Cc1[nH]nc2c1C(c1ccc(Br)cc1)C(C#N)=C(N)N2` (stereo not shown) [4g, 6-amino-4-(4-bromophenyl)-3-methyl-4,7-dihydro-2H-pyrazolo[3,4-b]pyridine-5-carbonitrile], the “ORAC (T. Eq.)” value in [1] is 0.96 T. Eq. and 0.96 ± 0.05 T. Eq. This compound registered an IC50 in the data set “DPPH reduction assay” of 24.1 ± 3.74 µM. The EC50 in data set [2] amounted to 4.5 ± 0.6 µM. In addition, the “fold more potent as anti-inflammatory than 4f” value in data set [2] (ratio of nitrite reduction EC50 values) was 2.2 fold. Also, the “VDCC % Response” value in data set [3] was 62% and 62.1 ± 1.6%. Besides, in [4], the “PAMPA Prediction” value is “CNS+”. The “BBB permeation prediction in words” value in [4] (PAMPA) was “predicted to cross the BBB”. In addition, the Papp at 4 h, 100 µM in data set [5] was found to be 7.2 ± 2.4 ×10⁻⁶ cm/s. The “free radical production (H2DCFDA fluorescence)” value in the data set on rat hippocampal slices [11] is listed as “reduced free radical production to basal conditions”. The “SH-SY5Y LD50” value in [6] is more than 100 µM. Further, at GSK-3β, the IC50 was determined as 2350 ± 1100 nM and the Ki turned out to be 1650 nM. In the data set on primary glial cultures [8], this compound came in with a Glial cultures LD50 of more than 100 µM. The viability at 1 µM in data set [12] (Homo sapiens, SH-SY5Y, read-out: cell viability (percentage survival), okadaic acid toxicity) worked out at 86.7%. Further, the “percentage of protection, R/O toxicity” value in data set [9] came to 59.7%.
For the compound `C=C1[C@@H](O)[C@@H]2O[C@]3(CC[C@H](/C=C/[C@@H](C)[C@@H]4CC(C)=C[C@@]5(O[C@H](C[C@@](C)(O)C(=O)O)CC[C@H]5O)O4)O3)CC[C@H]2O[C@@H]1[C@@H](O)C[C@H](C)[C@H]1O[C@@]2(CCCCO2)CC[C@H]1C` [OA, okadaic acid], the “reduction of cell viability of hippocampal slices” value in the data set on rat hippocampal slices [13] is given as 30%.
In the case of `COc1ccc2[nH]cc(CCNC(C)=O)c2c1` [Melatonin], the “SH-SY5Y LD50” value in [14] is listed as more than 100 µM. In the data set with primary glial cultures [15], this compound came in with a Glial cultures LD50 of more than 100 µM. The “percentage of protection, R/O toxicity” value in data set [9] worked out at 52.5%.
As to `Cc1[nH]nc2c1C(c1ccncc1)C(C#N)=C(N)N2` (stereo not shown) [4l], the “ORAC (T. Eq.)” value in [1] was 1.1 T. Eq. and 1.10 ± 0.13 T. Eq. In the data set “DPPH reduction assay”, this compound gave an IC50 of 22.9 ± 4.23 µM. For the same compound, the EC50 in [2] worked out at 15.6 ± 3.35 µM. For the same compound, the “VDCC % Response” value in data set [3] is on record as 68.9 ± 4.5%. Besides, the “PAMPA Prediction” value in [4] is recorded as “CNS+”. The Papp at 4 h, 100 µM in [5] was found to be 5 ± 2.9 ×10⁻⁶ cm/s. Moreover, in data set [6], the “SH-SY5Y LD50” value was more than 100 µM. On GSK-3β, this compound had an IC50 of 10200 ± 3200 nM and a Ki of 7140 nM. In addition, the “survival percentage, high K+ toxicity” value in data set [7] stood at 78.9%. For the same compound, the Glial cultures LD50 in the data set on primary glial cultures [8] was more than 100 µM. For the same compound, in data set [12] (1 μM, OA 20 nM), the “percentage of protection, okadaic acid toxicity” value is recorded as “over 50%”. Further, the “percentage of protection, R/O toxicity” value in data set [9] came out at 71.6%.
